Measurements reported in patent publication US8937176B2, “Compounds” (Boehringer Ingelheim International GmbH, priority 2011, dated 2015).

Target: T1, human recombinant mGluR5 (Homo sapiens, UniProt P41594)
T1 construct: expressed in transfected cells; host or cells: HEK 293 cell line
Assay: Positive modulation of mGluR5, calcium based FLIPR assay in HEK 293 cells
Settings: EC50 of the modulation; HEK 293 cell line expressing human recombinant mGluR5; glutamate at approximately 5% basal stimulation; peak height of Ca release fluorescence signal
Procedure: The positive modulation of mGluR5 is measured in a HEK 293 cell line expressing human recombinant mGluR5 and is detected with calcium based FLIPR assay. The cells are cultured with DMEM supplemented with 10% FCS, 2 μg/mL tetracycline, 100 μg/mL hygromycin and 500 μg/mL gneticin. The cell culture media is exchanged for tetracycline-free cell culture media 3-7 days before the assay. One day before the assay the cell culture medium is exchanged to DMEM without glutamine and phenol red and supplemented with 10% FCS, 100 μg/mL hygromycin and 500 μg/mL geneticin. On the assay day, the medium of the subconfluent cultures is removed and the cells are detached by addition of 2.5 ml EDTA(0.02%) per 175 cm2 culture flask for 1 minute. The cells are resuspend in Ringer solution (140 mM NaCl, 5 mM KCl, 2.5 mM CaCl2, 1.5 mM MgCl2, 5 mM Glucose, 10 mM Hepes; adjusted to pH 7.4 with NaOH), pooled and Ringer solution added to adjust the volume to 50 mL. The cell suspension is centrifuged for […] at 1500 U/min (425 g). The supernatant is removed and the cells washed a second time with 50 ml fresh Ringer solution and centrifuged again as before. The supernatant is again removed and the pellet resuspended in Ringer solution to 1,000,000 cells/ml (1×10^6 cells/mL). The cells are plated onto BD BioCoat Poly-D-Lysine 384 well plates (20.000 cells/well; 20 μl/well). The lid covered plates are then incubated until use at 37° C./10% CO2. For dye loading, 20 μl of Calcium-4 assay kit solution (prepared according to the manufacturer's description in Ringer solution) are added to the cells and the plates are incubated for 80 min 37° C. and then 10 min at room temperature.
Controls, Compound Dilution and Assay Execution:
Each assay plate contained wells with “high” and “low” controls:
Low controls 1% DMSO/ringer solution+basal glutamate activation (defined as 100% CTL).
High controls 10 μM CDPPB+basal glutamate activation (defined as 200% CTL).
Test compounds are dissolved and diluted in DMSO to 100-fold the desired concentrations. In a second step, the compounds are diluted in Ringer solution such that the compounds are 4-fold more concentrated than the desired final assay concentration. The final DMSO concentration was 1%.
20 μl of each compound solution are then transferred to the assay plate and the Ca2+ kinetic is measured to determine any intrinsic compound activity. After 5 min incubation in the FLIPR device, the second stimulation with 20 μl of glutamate in Ringer solution (glutamate concentration adjusted to approximately 5% basal stimulation of the maximal possible glutamate effect) is added and the kinetic Ca2+ response of the wells was measured for the modulation effect.
The peak height of the Ca release related fluorescence signal (9-66) is used for the EC50. The EC50 of the modulation is calculated over a nonlinear regression with GraphPad Prism (Table 1).

T1 sequence (P41594 21-1212): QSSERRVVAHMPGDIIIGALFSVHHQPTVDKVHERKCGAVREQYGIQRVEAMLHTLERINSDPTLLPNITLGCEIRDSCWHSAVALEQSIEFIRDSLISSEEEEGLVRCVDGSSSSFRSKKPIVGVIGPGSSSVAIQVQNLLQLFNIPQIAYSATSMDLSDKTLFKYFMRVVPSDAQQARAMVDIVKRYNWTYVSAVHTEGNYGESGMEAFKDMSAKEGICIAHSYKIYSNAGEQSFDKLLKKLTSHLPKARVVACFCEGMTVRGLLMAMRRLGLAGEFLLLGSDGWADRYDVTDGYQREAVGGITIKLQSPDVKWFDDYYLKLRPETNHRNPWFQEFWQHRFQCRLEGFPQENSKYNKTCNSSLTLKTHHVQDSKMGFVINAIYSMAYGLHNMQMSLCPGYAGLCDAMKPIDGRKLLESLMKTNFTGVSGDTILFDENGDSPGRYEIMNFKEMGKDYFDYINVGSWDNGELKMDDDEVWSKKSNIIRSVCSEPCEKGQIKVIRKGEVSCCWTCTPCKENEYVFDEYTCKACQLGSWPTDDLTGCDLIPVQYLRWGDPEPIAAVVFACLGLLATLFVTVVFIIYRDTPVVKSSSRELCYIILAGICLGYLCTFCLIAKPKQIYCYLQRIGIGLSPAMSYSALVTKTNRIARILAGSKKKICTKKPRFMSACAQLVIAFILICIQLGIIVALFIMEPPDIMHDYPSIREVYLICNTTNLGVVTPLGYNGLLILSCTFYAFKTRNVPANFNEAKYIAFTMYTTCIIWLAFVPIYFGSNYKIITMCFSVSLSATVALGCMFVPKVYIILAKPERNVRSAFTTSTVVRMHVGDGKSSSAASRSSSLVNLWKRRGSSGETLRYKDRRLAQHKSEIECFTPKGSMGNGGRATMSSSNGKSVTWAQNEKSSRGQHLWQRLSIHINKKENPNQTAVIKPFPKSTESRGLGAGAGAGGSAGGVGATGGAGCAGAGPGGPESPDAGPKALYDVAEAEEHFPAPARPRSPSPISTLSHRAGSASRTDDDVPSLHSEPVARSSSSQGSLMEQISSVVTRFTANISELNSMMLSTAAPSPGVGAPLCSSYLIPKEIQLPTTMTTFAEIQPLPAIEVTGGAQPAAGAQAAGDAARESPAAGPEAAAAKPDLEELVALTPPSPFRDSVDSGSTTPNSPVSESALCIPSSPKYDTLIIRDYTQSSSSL

EC50 [µM]	SMILES
0.19	COc1ccc(-c2cn(-c3ccccc3)c(CC(=O)N3CCN(c4ccccn4)CC3)n2)cc1 [Example 7.04.30.]
0.106	COc1cccc(-c2cn(-c3ccc(F)cc3)c(CC(=O)N3CCN(c4cc(OC)ccn4)CC3)n2)c1 [Example 7.04.39.]
